Assay results taken from PMC10517971, “An inverse agonist of orphan receptor GPR61 acts by a G protein-competitive allosteric mechanism” (Nature Communications, 2023).

Key:
Acetylcholinesterase = Acetylcholinesterase (Homo sapiens, UniProt P22303); assay: Acetylcholinesterase Assay (Ellman); type: biochemical
Protocol: 67 black 384 well flat -bottomed polystyrene plates. Compound/vehicle or standard (5 µL) were added
68 to wells followed by His -tagged BRD4 (10 µL; 40 nM final concentration in assay). Following a
69 15 min incubation at room temperature a propri etary Cy5 -labelled probe molecule (5 µL; 2 nM
70 final concentration in assay) was added. Following, an additional 16 h incubation at room
71 temperature fluorescence polarization measurements were made using an Envision plate reader
72 (Perkin Elmer, Waltham, MA, USA) and mP values were used for analysis .
73 Acetylcholinesterase As say
74 The assay described is based on Ellmans method, in which thiocholine produced by the action of
75 acetylcholinesterase forms a yellow color with 5,5'- dithiobis(2- nitrobenzoic acid). The intensity
76 of the product color, measured at 405 nm, is proportionate to the enzyme activity in the sample.
77 To each well of a clear 96 polystyrene plate 90 µL enzyme solution (1mU/well) or phosphate
78 buffered saline (PBS) and 10 µL compound/standard or vehicle was added. The plate was
79 incubated at room temperature for 15 min. Subsequently 100 µL of substrate/detection reagent
80 (800 µM acetylthiocholine/1mM 5,5'- dithiobis(2- nitrobenzoic acid)) was added and the plate was
81 read at the 20 min time point.
83 Human embryonic kidney (HEK) cells stably transfected with a doxycycline inducible plasmid […]

Human PDE10A1 = Human PDE10A1 (Homo sapiens, UniProt Q9Y233); assay: Phosphodiesterase Assay (SPA); type: biochemical
Human PDE10A1, sequence (Q9Y233 1-779 isoform Q9Y233-1): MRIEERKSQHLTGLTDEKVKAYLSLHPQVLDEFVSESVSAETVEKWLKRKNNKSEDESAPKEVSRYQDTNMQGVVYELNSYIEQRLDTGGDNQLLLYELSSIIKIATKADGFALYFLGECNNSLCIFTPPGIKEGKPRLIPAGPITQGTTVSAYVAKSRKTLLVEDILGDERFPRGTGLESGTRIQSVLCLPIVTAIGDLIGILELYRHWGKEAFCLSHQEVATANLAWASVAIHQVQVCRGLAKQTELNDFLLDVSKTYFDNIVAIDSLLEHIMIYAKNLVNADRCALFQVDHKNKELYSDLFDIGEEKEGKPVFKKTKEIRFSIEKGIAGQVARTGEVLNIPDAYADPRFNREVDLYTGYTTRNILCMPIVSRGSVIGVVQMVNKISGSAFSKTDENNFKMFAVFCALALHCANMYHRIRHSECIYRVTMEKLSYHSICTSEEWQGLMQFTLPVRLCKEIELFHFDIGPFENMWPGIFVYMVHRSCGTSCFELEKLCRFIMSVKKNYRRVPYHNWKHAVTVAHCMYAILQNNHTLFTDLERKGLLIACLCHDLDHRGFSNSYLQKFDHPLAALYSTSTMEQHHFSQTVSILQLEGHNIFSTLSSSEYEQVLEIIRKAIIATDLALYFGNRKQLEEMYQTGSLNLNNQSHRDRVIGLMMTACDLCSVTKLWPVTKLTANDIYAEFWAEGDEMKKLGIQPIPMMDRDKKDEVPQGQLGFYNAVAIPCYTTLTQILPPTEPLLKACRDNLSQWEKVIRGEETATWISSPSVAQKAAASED

panel of GPCRs = assay: GPCR selectivity panel; type: cell-based
Protocol: A homogeneous Time-Resolved Fluorescence (HTRF) assay (Perkin Elmer, Dynamic2 kit #) was used to assess receptor basal and inverse agonist activity at human GPR61, GPR62, and GPR101. For routine inverse agonist screening frozen CHO TREx human GPR61, GPR62 and GPR101 cells were used. Cells were thawed, resuspended in complete assay media (DMEM F-12, 10% HI FBS, 100 μg/mL Normocin, 700 μg/mL Hygromycin B and 15 μg/mL Blasticidin) containing 1ug/ml doxycycline, plated in white 384 well plates (Corning, 3570) at a density of 750 cells/well (25 μl/ well) and cultured at 37 °C in an incubator overnight. For studies assessing basal and inverse agonist activity at human GPR61 mutants, CHO-K1 cells were transiently transfected using Fugene6, plated in white 384 well plates (7500 cells/well) and grown overnight at 37 °C, as described for receptor expression studies. […] Data were analyzed using the ratio of fluorescence intensity at 620 and 665 nm for each well, extrapolated from the cAMP standard curve to express data as nM cAMP for each well. […]
7 recepto r activities wer e measured using FL IPR® Calcium Assays. […]
11 measured using a cal cium specific dye. […]
18 change in fluorescence from baseline over a 60 second period (Excitation 470- 495 nm; Emission […]
20 Tetra® instrument to evaluate antagonist activity, with the change in fluorescence from baseline
21 being measured over a 60 second period. […]

Acetylcholinesterase, sequence (P22303 32-614, species assumed): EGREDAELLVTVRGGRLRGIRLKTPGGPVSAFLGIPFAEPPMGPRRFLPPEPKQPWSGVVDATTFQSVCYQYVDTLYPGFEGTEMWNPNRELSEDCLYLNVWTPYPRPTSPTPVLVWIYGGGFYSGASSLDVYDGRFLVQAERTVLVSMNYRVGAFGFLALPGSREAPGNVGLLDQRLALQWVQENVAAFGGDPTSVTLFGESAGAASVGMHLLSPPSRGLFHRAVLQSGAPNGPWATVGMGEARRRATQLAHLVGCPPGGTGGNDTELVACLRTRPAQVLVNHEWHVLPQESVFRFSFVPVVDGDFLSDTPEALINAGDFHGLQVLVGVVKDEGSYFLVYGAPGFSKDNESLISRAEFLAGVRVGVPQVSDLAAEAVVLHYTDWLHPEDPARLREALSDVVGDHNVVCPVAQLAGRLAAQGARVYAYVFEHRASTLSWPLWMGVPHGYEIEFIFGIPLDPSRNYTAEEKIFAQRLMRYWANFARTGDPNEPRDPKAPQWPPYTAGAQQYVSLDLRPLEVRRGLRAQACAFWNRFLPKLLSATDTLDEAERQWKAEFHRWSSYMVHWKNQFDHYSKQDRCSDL

CCOc1cc(C)nc(N(CCOC)S(=O)(=O)c2ccc(NCc3c(F)cncc3F)nc2OC)n1 [Compound 1]
IC50 (Acetylcholinesterase): > 50 µM | IC50 (Human PDE10A1): > 40 µM | IC50 (panel of GPCRs; panel of GPCRs, read-out: off-target IC50 values): > 10 µM | selectivity for GPR61 (panel of GPCRs; panel of common off-target GPCRs and related receptors GPR62 and GPR101): selective
